Columns and labels:
[1] = tested on: Normal human astrocytes (HA); test: Regulation of metabolism in normal human astrocytes; type: cell-based; settings: vs control group
Method: Normal human astrocytes (HA) were incubated in culture media containing different concentrations of trisodium fructose-1,6-bisphosphate salt (0 mM, 0.25 mM, 0.5 mM, 1 mM), and lactic acid level in the culture media and intracellular ATP level were measured after 12 h and 24 h.
The normal human astrocytes (HA) were incubated in culture media containing different concentrations of trisodium fructose-1,6-bisphosphate salt (0 mM, 0.25 mM, 0.5 mM, 1 mM, 2 mM, 2.5 mM), and after 36 h, reduced glutathione GSH level and a ratio of NADPH/NADP+ in the group of […] trisodium fructose-1,6-bisphosphate in the cells were measured. […] (FIG. 1d, e)

U87MG [2] = test: 13C-glucose tracing: glycolysis, pentose phosphate, one-carbon and nucleic acid synthesis intermediates (LC-MS/MS); type: cell-based, human; settings: 1.6 mM, 36 h
Method: Human glioma cell strain (U87MG) was incubated in a medium containing ^13C-labeled glucose (U-^13C-Glc) and treated with 1.6 mM of trisodium fructose-1,6-bisphosphate for 36 h, and then, intermediate products of intracellular glycolysis pathway, pentose phosphate pathway, “one-carbon unit” metabolic pathway, and nucleic acid de novo synthesis pathway were measured using liquid-mass spectrometry (LC-MS/MS).

U87MG [3] = test: 13C-glucose tracing: tricarboxylic acid circulation intermediates, derived amino acids, nucleotide synthesis (LC-MS/MS); type: cell-based, human; settings: 1.6 mM, 36 h
Method: Human glioma cell strain (U87MG) was incubated in a medium containing ^13C-labeled glucose (U-^13C-Glc) and treated with 1.6 mM of trisodium fructose-1,6-bisphosphate for 36 h, and then using liquid-mass spectrometry (LC-MS/MS), intracellular tricarboxylic acid circulation intermediates, tricarboxylic acid circulation intermediates-derived amino acids and nucleotide de novo synthesis pathway intermediates were measured.

[4] = tested on: fructose-1,6-bisphosphatase 1; test: Kidney protein level of fructose-1,6-bisphosphatase 1 after 14 days treatment (Western Blot); type: in vivo; settings: SD rats, 14 days i.g.; FBP 500 mg/kg, metformin 150 mg/kg, sitagliptin 20 mg/kg; vs control group
Method: 180-200 g SD rats were divided into 4 groups: a saline control group, a trisodium fructose-1,6-bisphosphate hydrate group (500 mg/kg, i.g), a metformin group (150 mg/kg, i.g) or a sitagliptin group (20 mg/kg, i.g), and a trisodium fructose-1,6-bisphosphate and metformin or sitagliptin combination group, 5 rats in each group. All groups were intragastrically treated, metformin or sitagliptin was administrated 0.5 h before fructose-1,6-bisphosphate, and this was repeated in 14 consecutive days. At 3 hours after the last intragastric treatment with fructose-1,6-bisphosphate, rat blood was collected to detect the blood concentration of FBP, kidney tissue was taken and the protein level of fructose-1,6-bisphosphatase 1 was measured by Western Blot.

HCT-8 = test: Cell viability, Sulforhodamine B (SRB) staining; type: cell-based, human; settings: Homo sapiens, HCT-8, 72 h, FBP 0.8 mM
Method: Human intestinal cancer cell strains SW620 and HCT-8, which had been incubated for 24 hours, were respectively incubated in a medium containing 0.8 mM of trisodium fructose-1,6-bisphosphate, a medium containing 0.2 mM of metformin/100 μM of sitagliptin, and a medium containing 0.8 mM of trisodium fructose-1,6-bisphosphate and 0.2 mM of metformin/100 μM of sitagliptin for 72 h. A control group (Con) was not treated with the agent. Cell viability was determined by Sulforhodamine B (SRB) staining analysis method.

[5] = Weight gain and fat accumulation caused by high-fat diet; type: in vivo, ICR mice; settings: high-fat diet mice
Method: 40 ICR male mice (17-19 g/per mouse) were divided into 2 groups. […] The animals of the normal group (Naive) were still fed with the basic feed, and the model animals were equally divided into 4 groups and were further fed with the high-fat diet. In addition, according to the amount of water the mice had consumed, a certain dose of the agent was dissolved in drinking water. The animals in the model group (Model) were fed with the purified water, the animals in the fructose-1,6-bisphosphate group were fed with water containing 0.18% of 8-molecule hydrate of sodium fructose-1,6-bisphosphate (equivalent to FBP 300 mg/kg), the animals in the sitagliptin group were fed with water containing 0.012% of sitagliptin phosphate salt (equivalent to STG 20 mg/kg), and the animals in the combination group were fed with water containing FBP 500 mg/kg+STG 20 mg/kg. The treatment lasted continuously for 6 weeks, the body weight, food intake and water intake were measured per week, the body weight and body length (CM) were measured on the last day of the last week, and a Lee's INDEX (Lee's INDEX=body weight (g)^(1/3) * 1000/body length (cm)) was calculated to evaluate the state of animal obesity. Then, the animals were sacrificed by cervical vertebra dislocation and the mice were dissected, the epididymal fat pad was taken and weighed, and a fat coefficient was calculated to further investigate the degree of obesity of the mice.

[6] = tested on: peripheral neuralgia induced by paclitaxel; test: Peripheral neuralgia induced by paclitaxel, hot plate experiment; type: in vivo, ICR mice
Method: In this study, paclitaxel (2.8 mg/kg, 10 ml/kg) was injected intraperitoneally every other day, 4 times in total (days 1, 3, 5, 7) to induce peripheral neuralgia model in ICR female mice with a body weight of 20-24 g, and this model was used to observe the preventive effect of fructose-1,6-bisphosphate on the peripheral neuralgia caused by the chemotherapeutic agent. The paclitaxel antitumor agent is one of the first-line agents for human malignant tumors. Dose-limiting toxicity of paclitaxel mainly includes neurotoxicity and myelosuppression, the latter has been successfully overcome by using granulocyte colony-stimulating factor. However, the neurotoxicity, behaving as neuropathic pain, is still a worldwide problem, because the pain caused by this chemotherapy is not sensitive to any clinically used analgesics, and thus some patients have to reduce the dose until withdrawing the agent, which seriously affects the effect of the chemotherapy or even causes a failure of the chemotherapy. Some pains caused by the paclitaxel chemotherapy may not be eliminated immediately after the agent withdrawal, and often continues for months or even years, which seriously affects the life quality of tumor patients. In view of this, the peripheral neuralgia caused by paclitaxel is a representative pain after cancer treatment, and the animal pain model induced by paclitaxel is also representative.
A hot plate method was used to screen mice having relatively uniform heat-sensitive responses for experiments. […]
The heat-sensitive response of hind paws of the mice was measured with a hot plate experiment (52° C.±0.3) at 2 pm to 4 pm every day. […] In this way, a latent period of licking or retracting the hind paws was recorded. […] After the paclitaxel injection finished, the fructose-1,6-bisphosphate was continuously administrated and the heat-sensitive responses of the animals in each group were measured. […]

melanoma B16 cell = test: Cell viability, Sulforhodamine B (SRB) staining; settings: Mus musculus, B16, 72 h
Method: Mouse melanoma B16 cells, which had been incubated for 24 hours, were incubated in a medium containing 0.8 mM of trisodium fructose-1,6-bisphosphate, a medium containing 20 μM of sitagliptin, and a medium containing 0.8 mM of trisodium fructose-1,6-bisphosphate and 20 μM of sitagliptin for 72 h. A control group (Con) was not treated with the agent. Cell viability was determined by Sulforhodamine B (SRB) staining analysis method.

## O=C(COP(=O)(O)O)[C@@H](O)[C@H](O)[C@H](O)COP(=O)(O)O [FBP, fructose-1,6-bisphosphate]
[1]; 0.8 mM, 36 h
  intracellular protein level of Cyto C (Western Blot): significantly increased
  intracellular protein levels of PFKFB3 and LDH5 (Western Blot): significantly reduced
[1]; 1.6 mM, 36 h
  ratio of NADPH/NADP+: significantly increased
[1]; 0.25, 0.5, 1 mM, 12 h and 24 h
  lactic acid level in the culture media: decreased significantly
[1]; 0.25, 0.5, 1 mM, 24 h
  intracellular ATP level: increased significantly
[1]; 0.25-2.5 mM, 36 h
  reduced glutathione GSH level: significantly increased
U87MG [2]
  glycine (Gly) (M+2) produced by serine, relative to control group 1: 0.63±0.06
  serine (Ser) (M+3) produced by U-13C-Glc, relative to control group 1: 1.57±0.04
U87MG [2]; CON 13.03 ± 0.38
  Proportions of 13C-labeled ribose in free nucleosides and nucleotides, column F6P: 2.79 ± 0.14
U87MG [2]; CON 31.97 ± 1.11
  Proportions of 13C-labeled ribose in free nucleosides and nucleotides, column GAP: 11.31 ± 1.75
U87MG [2]; CON 41.00 ± 4.28
  Proportions of 13C-labeled ribose in free nucleosides and nucleotides, column FBP: 34.99 ± 1.63
U87MG [2]; CON 59.40 ± 1.11
  Proportions of 13C-labeled ribose in free nucleosides and nucleotides, column PEP: 13.71 ± 0.54
U87MG [2]; CON 61.60 ± 1.95
  Proportions of 13C-labeled ribose in free nucleosides and nucleotides, column Lac: 30.70 ± 2.11
U87MG [2]; control group 68.96±5.03%
  proportion of the 13C-labeled 5-phosphate ribose (R5P): 17.32±1.23%
U87MG [2]; U-13C-Glc
  Relative level of F6P (compared with the control group): 2.06 ± 0.04
  Relative level of FBP (compared with the control group): 5.01 ± 0.34
  Relative level of GAP (compared with the control group): 4.27 ± 0.07
  Relative level of Lac (compared with the control group): 1.06 ± 0.02 ^N.S.
  Relative level of PEP (compared with the control group): 8.00 ± 0.32
U87MG [3]
  Relative level of Asp (compared with the control group): 0.16 ± 0.07
  Relative level of Glu (compared with the control group): 0.35 ± 0.04
  Relative level of OAA (compared with the control group): 1.87 ± 0.04
  Relative level of α-KG (compared with the control group): 1.61 ± 0.01
U87MG [3]; CON 12.41 ± 1.19
  Proportion of 13C-labeled purine/pyrimidine ring in A: 7.70 ± 1.50
U87MG [3]; CON 20.58 ± 2.30
  Proportion of 13C-labeled purine/pyrimidine ring in U: 8.33 ± 0.90
U87MG [3]; CON 38.26 ± 1.50
  Proportion of 13C-labeled purine/pyrimidine ring in ATP: 23.77 ± 0.57
U87MG [3]; CON 50.67 ± 0.96
  Proportion of 13C-labeled purine/pyrimidine ring in UTP: 18.19 ± 0.87
U87MG [3]; CON 53.75 ± 1.47
  Proportion of 13C-labeled purine/pyrimidine ring in G: 41.83 ± 4.06
[4]
  protein level of fructose-1,6-bisphosphatase 1 in kidney tissue (Western Blot): significantly up-regulated
HCT-8; STG 100 μM, read-out: cell viability (Con = 100)
  viability at 800 µM: 85.9 ± 3.29%
HCT-8; sitagliptin 100 μM, read-out: cell viability inhibited
  cytotoxicity at 800 µM: 41%
[5]; 6 weeks, model group 3.96±0.83%, normal group 1.58±0.68%
  fat coefficient (epididymal fat pad): 2.81±0.81%
[5]; 6 weeks, model group 353.28±9.64, normal group 337.05±9.96
  Lee's INDEX: 326.14±11.10
[5]; agents in drinking water, FBP 300 mg/kg, STG 20 mg/kg, combination FBP 500 mg/kg+STG 20 mg/kg, model group 47.89±3.34
  body weight after 6 weeks: 45.93 ± 5.1 g
[6]; 400 mg/kg ig once per day, day 7 and any later time point, vs model group
  hind paw retraction latent period (hot plate 52° C.): significantly longer
[6]; high-dose FBP (400 mg/kg)
  efficacy against peripheral neuralgia over treatment duration: gradually disappears
[6]; low-dose FBP (200 mg/kg)
  efficacy against peripheral neuralgia over treatment duration: gradually increases
Melanoma B16 cell; read-out: cell viability (Con = 100)
  viability at 800 µM: 77.7 ± 7.29%
Melanoma B16 cell; read-out: cell viability inhibited
  cytotoxicity at 800 µM: 22%

— US20200246364A1, “MEDICAL APPLICATION OF COMPOSITION OF FRUCTOSE-1,6-BISPHOSPHATE AND BLOOD CONCENTRATION STABILIZER THEREOF” (ZHEJIANG UNIVERSITY, priority 2017, published 2020)
